Data from patent US9133163B2, “Dihydropyrazole GPR40 modulators” (Bristol-Myers Squibb Company, priority 2012, dated 2015).

What follows are compounds tested against hGPR40 (Homo sapiens, UniProt O14842) (assay: FDSS-based intracellular calcium assay). Conditions: intracellular Ca2+ response, cells expressing GPR40.
hGPR40, sequence (O14842 whole entry): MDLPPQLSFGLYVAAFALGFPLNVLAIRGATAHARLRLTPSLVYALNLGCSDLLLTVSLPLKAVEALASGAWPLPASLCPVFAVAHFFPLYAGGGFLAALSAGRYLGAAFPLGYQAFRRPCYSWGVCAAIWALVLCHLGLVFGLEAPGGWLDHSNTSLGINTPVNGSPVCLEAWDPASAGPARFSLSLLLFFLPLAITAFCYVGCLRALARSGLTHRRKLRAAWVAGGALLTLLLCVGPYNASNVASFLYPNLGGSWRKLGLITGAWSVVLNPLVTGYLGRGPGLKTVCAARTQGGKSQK
Type: cell-based
Parameters: 3xFLAG; expressed in transfected cells
Method: FDSS-Based Intracellular Calcium Assay
Compounds are dissolved in DMSO and diluted to desired concentrations with assay buffer and added to the cells as 3× solution (20 μL per well). Run fluorescence/luminescence reader FDSS (Hamamatsu) to read intracellular Ca^2+ response.
COc1ccc(F)c(N2CCC(Oc3ccc(N4N=C(c5ccc(C#N)cc5)[C@@H](C)[C@@H]4CC(=O)O)cc3)CC2)c1 [Example 91, 2-((4S,5S)-3-(4-Cyanophenyl)-1-(4-((1-(2-fluoro-5-methoxyphenyl)piperidin-4-yl)oxy)phenyl)-4-methyl-4,5-dihydro-1H-pyrazol-5-yl)acetic acid] was tested, and the EC50 was 62 nM. For C[C@@H]1C(C(F)(F)F)=NN(c2ccc(OC3CCN(c4ccccc4)CC3)cc2)[C@H]1CC(=O)O [Example 72, 2-((4S,5S)-4-Methyl-1-(4-((1-phenylpiperidin-4-yl)oxy)phenyl)-3-(trifluoromethyl)-4,5-dihydro-1H-pyrazol-5-yl)acetic acid], the EC50 was 1930 nM. COc1ccc(C)c(N2CCC(Oc3ccc(N4N=C(C(F)(F)F)[C@@H](C)[C@@H]4CC(=O)O)cc3)CC2)c1 [Example A2, 2-((4S,5S)-1-(4-(1-(5-Methoxy-2-methylphenyl)piperidin-4-yloxy)phenyl)-4-methyl-3-(trifluoromethyl)-4,5-dihydro-1H-pyrazol-5-yl)acetic acid] gave an EC50 of 161 nM. CCOc1cc(N2CC[C@H](Oc3ccc(N4N=C(C(F)(F)F)[C@@H](C)[C@@H]4CC(=O)O)cc3)[C@@H](C)C2)c(F)cn1 [Example 84, 2-((4S,5S)-1-(4-(((3S,4S)-1-(2-Ethoxy-5-fluoropyridin-4-yl)-3-methylpiperidin-4-yl)oxy)phenyl)-4-methyl-3-(trifluoromethyl)-4,5-dihydro-1H-pyrazol-5-yl)acetic acid] gave an EC50 of 2580 nM. With CCOc1ccc(F)c(N2CCC(Oc3ccc(N4N=C(c5ccc(F)cc5)[C@@H](C)[C@@H]4CC(=O)O)cc3)CC2)c1 [Example 95, 2-((4S,5S)-1-(4-((1-(5-Ethoxy-2-fluorophenyl)piperidin-4-yl)oxy)phenyl)-3-(4-fluorophenyl)-4-methyl-4,5-dihydro-1H-pyrazol-5-yl)acetic acid] the EC50 was 108 nM.
